A melting point compilation (Tetko et al.; mined from patent text by program, amines drawn as free bases though some values may be those of a salt)

Row | melting point | Structure (SMILES)
1 | 111 to 113 °C | CCCc1c(-c2ccncc2)[nH]c(-c2ccncc2)c1C(C)=O
2 | 81.6 to 81.8 °C | O=c1cc(Cl)cnn1CC1CCCCC1
3 | 86.1 to 86.9 °C | Cc1ccc(C)c(OCCC(N)C(C)(C)C(=O)O)c1 (stereo unspecified)
4 | 199 to 200 °C | CCC(C)(C)Nc1c(NCc2cc(C)ccc2C)c(=O)c1=O
5 | 187 to 188 °C | COC(=O)c1nc(-c2nccs2)cc(NC(C)=O)c1Cl
6 | 52 to 54 °C | CCCc1cc(=O)oc2c3c(c4c(c12)OC(C)(C)C=C4)OC(C)C(C)C3O (single isomer, unassigned; (-))
7 | 137 to 138 °C | Cc1cccc(-c2[nH]c(C(C)C)nc2-c2cccc(-c3ccc4c(c3)C=CS4(=O)=O)c2)n1
8 | 138 to 140 °C | Cc1cc(OCCCCCCCCNC(=O)c2cc(-c3cccc(Cl)c3)c(OCC(=O)O)c(-c3cccc(Cl)c3)c2)ccc1F
9 | 210 to 215 °C | O=C(O)c1cc(S(=O)(=O)Cl)cc2c1OCCO2
10 | 200 °C | COc1ccc(O)c(C(=O)NCCc2ccc([N+](=O)[O-])cc2)c1
11 | 172 °C | O=Cc1ccc2[nH]c(C(=O)OCc3ccccc3)cc2c1
12 | 138 to 140 °C | CC(C)(C)NC(=O)Nc1nc2nc(S(C)(=O)=O)ncc2cc1-c1c(Cl)cccc1Cl
13 | 60 to 63 °C | CC(C)(C)OC(=O)N1CCC(CCOS(C)(=O)=O)CC1
14 | 205 to 207 °C | NC(=O)c1c(N)sc(-c2ccc(F)cc2)c1-c1ccccc1
15 | 160 to 162 °C | CN1CCC(c2c[nH]c3ccc(C(=O)c4ccc(C(F)(F)F)cc4)cc23)CC1
16 | 105 to 107 °C | CCOC(=O)c1cc(-c2csc(-c3cccnc3)n2)[nH]n1
17 | 188 to 189 °C | CCCCCCCNC(=O)Nc1ccc(OCC)cc1C(=O)NCC1CCN(C(c2ccccc2)c2ccccc2)CC1
18 | 220 °C | CC(C)CCNCCCS(=O)(=O)O
19 | 238 to 240 °C | O=C1Nc2ccccc2SC1=Cc1ccc(Cl)cc1
20 | 113 to 114 °C | CCn1ccc2c(C)nc3c(Br)cnn3c21
21 | 159 to 160 °C | C=CCOc1ccccc1OCC(O)CNC1CCC(NC(=O)NCC)CC1 (stereo unspecified)
22 | 63 to 65 °C | CCC(=O)Nc1ccc(OC)cc1OC
23 | 185 to 187 °C | CC(C)(CN)c1ccc2nc(-c3ccccc3)[nH]c2c1
24 | 100 °C | CCOC(=O)C1=C(COCC#CC(=O)O)NC(C)=C(C(=O)OC)C1c1cccc(Cl)c1Cl (stereo unspecified)

Row | melting point | Structure (SMILES)
25 | 94 to 96 °C | COC(=O)OCC1OC(n2cc(C)c(=O)[nH]c2=O)C(OC(=O)c2cccc(C(F)(F)F)c2)C1OS(C)(=O)=O (stereo unspecified)
26 | 256 to 258 °C | CNC(=O)c1ccccc1Nc1nc(Nc2cc3c(cc2OC)CCOC(=O)N3C)ncc1Cl
27 | 38 to 42 °C | CCCc1nc(C)cn1-c1cc(F)ccc1N
28 | 82.5 to 83.5 °C | COc1ccc(C(C)(C)C)cc1C(=O)c1ccc([N+](=O)[O-])cc1Cl
29 | 118 to 119 °C | CCOC(=O)c1c(CN(CC)CC)nc2cc(OC)c(OC)cc2c1-c1ccc(OC)cc1
30 | 136 to 137 °C | NNc1nc(C(F)(F)F)c(Cl)s1
31 | 260 °C | COc1ccc(-n2nc(S)nc2-c2ccccc2)cc1
32 | 127 to 129 °C | O=C(c1cccc2[nH]ccc12)N1CCOCC1
33 | 65 to 67 °C | CCN(CC)CCCCC(=O)c1cccc2cc3c(C(=O)CCCCN(CC)CC)cccc3cc12
34 | 191 to 192 °C | NC(=O)c1cccc(-c2ccnc3cc(Cc4cccc(C(F)(F)F)c4)sc23)c1
35 | 152 to 153 °C | CS(=O)c1nnc(-c2ccc3ncn(-c4ccc(OC(F)(F)F)cc4)c3c2)o1 (stereo unspecified)
36 | 167 to 169 °C | CCOC(CN1C(=O)C2=C(c3cccs3)N(CC(OCC)OCC)C(=O)C2=C1c1cccs1)OCC
37 | 171 to 175 °C | CC(C)[C@H](NS(=O)(=O)c1ccc2c(c1)Sc1ccccc1O2)C(=O)O
38 | 225 to 226 °C | NC(=O)c1ccccc1N1CCc2cc(Cl)cc([N+](=O)[O-])c21
39 | 191 °C | Cc1nc(-c2ccc([C@H]3CN(c4nc(-c5ccncn5)cc(=O)n4C)CCO3)cc2)no1
40 | 158 to 160 °C | Cc1ccc(S(=O)(=O)ON=C2CCCc3c2ccc(OCc2ccccc2)c3N(C)C(=O)OCc2ccccc2)cc1
41 | 220 °C | CS(=O)(=O)Nc1cc([C@@H](O)CNC2CCN(c3ccc(/C=C/C(=O)O)cc3)CC2)ccc1O
42 | 99 to 107 °C | CC(C)C(C)(C#N)N1C(=O)c2ccc3ccsc3c2C1=O (stereo unspecified)
43 | 250 to 252 °C | Cc1cc([N+](=O)[O-])cc(C)c1Oc1ccc([N+](=O)[O-])c(Nc2ccc(C#N)cc2)n1
44 | 160 °C | COc1ccc(CCN(C)CCCOc2ccc(NC(=O)c3cccc4c(=O)c5ccccc5[nH]c34)cc2)cc1
45 | 75 to 77 °C | OCCc1nccn1CCCCc1ccc(OCc2ccccc2)cc1
46 | 189 °C | CC1(C)Oc2ccc([N+](=O)[O-])cc2C(n2ccccc2=O)=C1NC(=O)C(F)(F)F
47 | 248 to 253 °C | Nc1ccc([N+](=O)[O-])cc1S(=O)(=O)CCc1ccc(S(=O)(=O)O)cc1

More lines, now with the values behind:

Row | Structure (SMILES) | melting point
48 | O=C(Nc1ccc(OCCO)cc1)c1ccc(N2CCNCC2)cc1 | > 260 °C
49 | COc1nc2ccccc2nc1NC(=S)N1CCN(c2ccccc2SC)CC1 | 148 to 150 °C
50 | CN1CCN(C2=Nc3ccccc3-n3ccc4cc(Br)cc2c43)CC1 | 157 to 159 °C
51 | O=C(O)Cc1nn(Cc2ccc(Br)c(Cl)c2)c(=O)c2ccccc12 | 186 °C
52 | CC1OC(c2ccccc2Cl)c2cc(Cl)ccc2NC1=O (stereo unspecified) | 214 to 215 °C
53 | COc1c(N2CCC(N)C(C)(C)C2)c(F)cc2c(=O)c(C(=O)O)cn(C3CC3)c12 (stereo unspecified) | 222 to 224 °C
54 | CC(=O)CCCCc1ccc(-c2ccccc2F)cc1 | 37 to 38 °C
55 | CCOC(=O)n1c(Cc2ccccc2)noc1=O | 129 °C
56 | Cc1nc(N)nc(N)c1OCCCc1ccccc1 | 160 to 162 °C
57 | NS(=O)(=O)c1ccc(CCN2C(=O)c3ccccc3C2=O)s1 | 226 to 229 °C
58 | COc1c(C2CCN(CCCCNC(=O)c3[nH]nc(-c4ccc(C#N)cc4)c3C)CC2)ccc2c1CCCC2 | 222 °C
59 | O=C(N[C@H](Cc1ccc(C(F)(F)F)cc1)[C@@H](O)c1ccc(F)cc1)c1cccc2cccc(Br)c12 (racemic) | 191 to 192 °C
60 | COc1ccc(COC(=O)[C@@H]2C[C@@H](O)CN2C(=O)OCc2ccc([N+](=O)[O-])cc2)cc1 | 83 to 85 °C
61 | FC(F)(F)c1cc(CO[C@H]2CCCN(Cc3ncncn3)[C@H]2c2ccccc2)cc(C(F)(F)F)c1 | 117 to 119 °C
62 | COc1ccc2c(Cl)noc2c1Br | 134 to 135 °C
63 | O=c1[nH]ncc2[nH]c(-c3ccc(OC(F)F)c(OC4CC4)c3)c(COC3CCC3)c12 | 95 to 100 °C
64 | O=C(O)Cc1ccc2c(c1)C(=O)c1cc(C(F)(F)F)ccc1CO2 | 152 to 155 °C
65 | Cc1ccc(N2C=NC(=O)C23CCN(Cc2ccccc2)CC3)cc1 | 208 to 213 °C
66 | COc1ccc2c3c1OC1C(=O)CC(C)C4(OC)C(C2)N(C)CCC314 (stereo unspecified) | 204 to 205 °C
67 | CCOc1cc([N+](=O)[O-])c2c(c1)C1(C)CCN(C)C1N2C (stereo unspecified) | 106 to 108 °C
68 | CCOP(=O)(/C=C/c1cn(-c2ccccc2)nc1OCc1ccc(OCc2nc(-c3ccc(OC)c(C(=O)O)c3)oc2C)c(OC)c1)OCC | 171 to 172 °C
69 | CCCC(=O)OCC(=O)C1(OC(=O)CC)CCC2C3CC(C)C4=CC(=O)CCC4(C)C3C(O)CC21C (stereo unspecified) | 211 °C
70 | O=[N+]([O-])c1ccc(OC2CCN(c3ccncc3)CC2)cc1 | 142 °C
71 | COCCCCCCCCCCCC(N)=S | 86.8 to 89.2 °C
72 | Cc1ncc(CN2CCc3cc(-c4ccccc4)ccc3C2)c(N)n1 | 186 to 188 °C

Row | Structure (SMILES) | melting point
73 | Cc1ccc(C(Br)=NOS(C)(=O)=O)cc1 | 82.5 to 91.5 °C
74 | O=c1c2cc(Cl)c(Cl)cc2nc2n1CS(=O)(=O)N2 | > 300 °C
75 | COC(=O)CCc1cc2cc(Cl)ccc2n1S(=O)(=O)c1ccc2ncsc2c1 | 134 to 138 °C
76 | CCCOc1ccc(C(=O)Nc2ccc3cc(CN4CCCC4)cnc3c2C)c(F)c1 | 146 °C
77 | NC(=O)N1CCC2(CC1)CN(c1ccccc1[N+](=O)[O-])c1ccccc12 | 218 to 219 °C
78 | COC(=O)c1ccc(C(F)(F)F)cc1N(S(C)(=O)=O)S(C)(=O)=O | 221 to 225 °C
79 | N#Cc1ccc(N(N)Cc2ccc(Br)cc2)cc1 | 90 °C
80 | CC(C)(C)c1cc(/C=C(\C#N)C(N)=S)cc(C(C)(C)C)c1O | 210 °C
81 | C=C(C)c1ccc(C(C)(C)OOC(C)(C)c2ccccc2)cc1 | 40 °C
82 | O=C1N[C@H](Cc2ccc(C(F)(F)F)c(F)c2)[C@H](c2ccc(F)cc2)O1 (racemic) | 122 to 123 °C
83 | CC(C)C[C@H](NC(=O)[C@@H]1CCC(=O)O1)C(=O)OC(C)(C)C | 79 to 81 °C
84 | Cc1c(NC(=O)c2cccc(OCC(=O)OC(C)(C)C)c2)c2ccccn2c1C(=O)c1ccc(NC(=O)C(F)(F)F)c(C(=O)OCc2ccccc2)c1 | 200 °C
85 | Oc1ccccc1-c1nc(-c2ccccc2)no1 | 156 to 158 °C
86 | Cc1c(Cc2ccc(C(C)C)cc2)c2c(c(C)c1NC(=O)CC(C)(C)C)C(c1ccc(C(C)C)cc1)CO2 (stereo unspecified) | 157 to 158 °C
87 | Cn1c(-c2ccccc2)c(C(=O)CCn2ccnc2)c2ccccc21 | 159 to 162 °C
88 | Cc1ccc(-c2ccc(S(C)(=O)=O)cc2)n1-c1ccc(-c2ccco2)c(Cl)c1 | 127 to 131 °C
89 | c1ccc(N2CCN(Cc3c[nH]c4ncccc34)CC2)cc1 | 207 to 209 °C
90 | CCc1ccc2c(c1)C=Cc1cc(C)ccc1C2c1cn(-c2ccnc(NCC(=O)Nc3ncc(CC(=O)O)s3)n2)c(=O)[nH]c1=O (stereo unspecified) | 206 to 208 °C
91 | O=C(NCC(O)c1ccccc1)C1CCCCC1 (stereo unspecified) | 118 to 119 °C
92 | COC(=O)C1=C(C)NC(c2ncsc2Cl)=NC1c1ccc(F)cc1 (stereo unspecified) | 118 to 122 °C
93 | CC(=O)NCC1CN(c2ccc(-c3cccc(CCl)c3)c(F)c2)C(=O)O1 (stereo unspecified) | 128 to 130 °C
94 | O=C1N[C@@H](CSSc2ccccc2)C(=O)N2CCC[C@H]12 | 120 °C
95 | COC(=O)C(Oc1ccc([N+](=O)[O-])cc1)C(C)=O (stereo unspecified) | 87.5 to 88 °C
96 | O=C(Nc1ccc2oc3c(c2c1)CCCC3)C12CC3CC(CC(C3)C1)C2 | 247 to 248 °C
